Tested on: sarcosine oxidase
Test: Influence of metal ions (metal chloride salts) on sarcosine oxidase activity
Assay type: biochemical
Details: sarcosine oxidase activity with metal chloride salt, final concentration 2 mM, None = 100
Method: As shown in the following Table 1, activity of the sarcosine oxidase was greatly influenced by metal ions. Since metal ions were inevitably contained in the sample, EDTA was added at 0.01 to 0.02 g/dL to chelate the metal ions and to prevent activity of the sarcosine oxidase from decreasing due to the metal ions. In this case, when an amount of EDTA added was small, the metal ions were not sufficiently removed. […] In the present example, EDTA4NA was used. However, another substance that can chelate the metal ions could be used. Then, AHMT serving as a chromogen was dissolved at 20 to 50 mM. In this case, when an amount of the reagent added was small, there was no difference in color development between specimens of an intermediate concentration and a high concentration. On the other hand, when an amount of the reagent added was large, discoloration was caused in a natural state, which caused a change in a product or a false positive result.
As shown in the following Table 2, activity of the sarcosine oxidase is greatly influenced by metal ions. When an excessive amount of metal ions was contained in the sample, EDTA was added at 0.01 to 0.02 g/dL in order to chelate and remove the metal ions and prevent activity of the sarcosine oxidase from decreasing due to the metal ions. That is, EDTA serves as a metal adsorber and facilitates activation of the enzymes. In the present example, EDTA4NA was used. However, another substance that can chelate the metal ions could be used. When an amount of EDTA added was small, the metal ions were not sufficiently removed.

Compound	Relative activity (%) (Table 1 (first example))	Relative activity (%) (Table 2 (second example))
[Cl-].[Cl-].[Zn+2] [Zn^2+]	7%	7%
[Cl][Ni][Cl] [Ni^2+]	76%	76%
[Cl][Fe][Cl] [Fe^2+]	66%	66%
[Cl][Mn][Cl] [Mn^2+]	63%	63%
[Cl][Cu][Cl] [Cu^2+]	0%	0%
[Cl][Cd][Cl] [Cd^2+]	7%	7%
[Cl][Hg][Cl] [Hg^2+]	0%	0%
[Cl-].[Cl-].[Co+2] [Co^2+]	52%	52%

From patent US20160222432A1, “TEST STRIP USING FORMALDEHYDE OR PEROXIDE, FROM AMONG SARCOSINE METABOLITES, FOR DIAGNOSING PROSTATE CANCER, AND METHOD FOR DIAGNOSING PROSTATE CANCER USING SAME” (CSQUARE CO., LTD, priority 2013, published 2016)
